Data published in ChEMBL document CHEMBL1150577, “Inhibition of glucose and dehydroascorbic acid uptakes by resveratrol in human transformed myelocytic cells” (J Nat Prod, 2001).
Active and inactive are the calls of the source. The rule behind the calls is not given here.

Tests used:
U-937 [1] = assay: Inhibition of 2-[1,2-3H(N)]deoxy-D-glucose uptake in human U937 cells at 73 uM by scintillation spectrometry in presence of buffer containing NaCl and Na2HPO4; format: functional
HL-60 [2] = assay: Inhibition of 2-[1,2-3H(N)]deoxy-D-glucose uptake in human HL60 cells at 75 uM by scintillation spectrometry in presence of buffer containing NaCl and Na2HPO4; format: functional
U-937 [3] = assay: Inhibition of 2-[1,2-3H(N)]deoxy-D-glucose uptake in human U937 cells by Michaelis-Menten plot; format: functional, cell-based
HL-60 [4] = assay: Inhibition of 2-[1,2-3H(N)]deoxy-D-glucose uptake in human HL60 cells by Michaelis-Menten plot; format: functional, cell-based
U-937 [5] = assay: Inhibition of 2-[1,2-3H(N)]deoxy-D-glucose uptake in human U937 cells by scintillation spectrometry in presence of sodium-free buffer; format: functional, cell-based
HL-60 [6] = assay: Inhibition of 2-[1,2-3H(N)]deoxy-D-glucose uptake in human HL60 cells by scintillation spectrometry in presence of sodium-free buffer; format: functional, cell-based
U-937 [7] = assay: Inhibition of 2-[1,2-3H(N)]deoxy-D-glucose uptake in human U937 cells at >500 uM by scintillation spectrometry in presence of buffer containing NaCl and Na2HPO4; format: functional
HL-60 [8] = assay: Inhibition of 2-[1,2-3H(N)]deoxy-D-glucose uptake in human HL60 cells at >500 uM by scintillation spectrometry in presence of buffer containing NaCl and Na2HPO4; format: functional
U-937 [9] = assay: Inhibition of 2-[1,2-3H(N)]deoxy-D-glucose uptake in human U937 cells at >100 uM by scintillation spectrometry in presence of sodium-free buffer; format: functional
HL-60 [10] = assay: Inhibition of 2-[1,2-3H(N)]deoxy-D-glucose uptake in human HL60 cells at >100 uM by scintillation spectrometry in presence of sodium-free buffer; format: functional
U-937 [11] = assay: Inhibition of [14C]dehydroascorbic acid uptake in human U937 cells by scintillation spectrometry in presence of buffer containing NaCl and Na2HPO4; format: functional, cell-based
HL-60 [12] = assay: Inhibition of [14C]dehydroascorbic acid uptake in human HL60 cells by scintillation spectrometry in presence of buffer containing NaCl and Na2HPO4; format: functional, cell-based
U-937 [13] = assay: Inhibition of [14C]dehydroascorbic acid uptake in human U937 cells at 38 uM by scintillation spectrometry in presence of buffer containing NaCl and Na2HPO4; format: functional
HL-60 [14] = assay: Inhibition of [14C]dehydroascorbic acid uptake in human HL60 cells at 32 uM by scintillation spectrometry in presence of buffer containing NaCl and Na2HPO4; format: functional
U-937 [15] = assay: Inhibition of [14C]dehydroascorbic acid uptake in human U937 cells by Michaelis-Menten plot; format: functional, cell-based
U-937 [16] = assay: Inhibition of [14C]dehydroascorbic acid uptake in human U937 cells by scintillation spectrometry in presence of sodium-free buffer; format: functional, cell-based
HL-60 [17] = assay: Inhibition of [14C]dehydroascorbic acid uptake in human HL60 cells by scintillation spectrometry in presence of sodium-free buffer; format: functional, cell-based
[18] = target: T1, Solute carrier family 2, facilitated glucose transporter member 1 (Rattus norvegicus) (UniProt P11167); assay: Blockade of rat Glut1 expressed in CHO cells assessed as inhibition of 2-[1,2-3H(N)]deoxy-D-glucose uptake by scintillation spectrometry; format: cell-based
T1 sequence (whole entry): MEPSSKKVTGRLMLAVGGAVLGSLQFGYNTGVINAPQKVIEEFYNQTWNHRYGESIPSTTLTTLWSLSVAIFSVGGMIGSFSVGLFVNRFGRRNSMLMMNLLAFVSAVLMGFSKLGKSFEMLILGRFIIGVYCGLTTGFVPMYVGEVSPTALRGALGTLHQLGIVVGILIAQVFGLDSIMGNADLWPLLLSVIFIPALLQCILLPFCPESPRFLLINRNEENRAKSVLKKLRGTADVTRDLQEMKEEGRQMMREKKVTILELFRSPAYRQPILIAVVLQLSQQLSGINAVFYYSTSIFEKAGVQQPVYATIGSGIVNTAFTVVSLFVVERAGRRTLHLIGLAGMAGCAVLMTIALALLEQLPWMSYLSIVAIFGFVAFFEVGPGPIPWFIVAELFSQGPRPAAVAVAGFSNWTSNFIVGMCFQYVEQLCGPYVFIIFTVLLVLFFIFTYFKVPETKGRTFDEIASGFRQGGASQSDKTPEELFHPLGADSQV

[19] = target: T1, Solute carrier family 2, facilitated glucose transporter member 1 (Rattus norvegicus); assay: Blockade of rat Glut1 expressed in CHO cells assessed as inhibition of [14C]dehydroascorbic acid uptake by scintillation spectrometry; format: cell-based
[20] = target: T2, Solute carrier family 2, facilitated glucose transporter member 3 (Homo sapiens) (UniProt P11169); assay: Blockade of human Glut3 expressed in CHO cells assessed as inhibition of 2-[1,2-3H(N)]deoxy-D-glucose uptake by scintillation spectrometry; format: cell-based
T2 sequence (whole entry): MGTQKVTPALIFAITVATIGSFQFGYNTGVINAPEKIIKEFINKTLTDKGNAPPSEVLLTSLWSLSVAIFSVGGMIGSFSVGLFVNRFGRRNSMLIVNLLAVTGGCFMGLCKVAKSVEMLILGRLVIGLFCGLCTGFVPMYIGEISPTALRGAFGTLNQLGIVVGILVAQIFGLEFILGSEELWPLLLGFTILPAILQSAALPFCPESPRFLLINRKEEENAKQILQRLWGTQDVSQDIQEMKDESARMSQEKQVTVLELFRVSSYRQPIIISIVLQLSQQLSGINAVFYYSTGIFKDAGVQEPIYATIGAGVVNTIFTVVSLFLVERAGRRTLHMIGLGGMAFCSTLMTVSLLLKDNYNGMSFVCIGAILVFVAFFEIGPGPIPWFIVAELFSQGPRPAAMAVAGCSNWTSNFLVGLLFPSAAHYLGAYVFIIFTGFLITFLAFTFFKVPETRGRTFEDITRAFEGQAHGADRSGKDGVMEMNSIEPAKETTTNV

[21] = target: T2, Solute carrier family 2, facilitated glucose transporter member 3 (Homo sapiens); assay: Blockade of human Glut3 expressed in CHO cells assessed as inhibition of [14C]dehydroascorbic acid uptake by scintillation spectrometry; format: cell-based

Activity [18]: Active
Activity [19]: Active
Activity [20]: Active
Activity [21]: Active
SMILES: Oc1ccc(/C=C/c2cc(O)cc(O)c2)cc1 [RESVERATROL]
inhibition at 73 µM (U-937 [1]): 50%
inhibition at 75 µM (HL-60 [2]): 50%
Ki (U-937 [3]): 89 µM
Ki (HL-60 [4]): 85 µM
Activity (U-937 [5]): Active
Activity (HL-60 [6]): Active
inhibition (INH) (U-937 [7]): 20%
inhibition (INH) (HL-60 [8]): 20%
inhibition (INH) (U-937 [9]): 10%
inhibition (INH) (HL-60 [10]): 10%
Activity (U-937 [11]): Dose-dependent effect
Activity (HL-60 [12]): Dose-dependent effect
inhibition at 38 µM (U-937 [13]): 50%
inhibition at 32 µM (HL-60 [14]): 50%
Ki (U-937 [15]): 35 µM
Activity (U-937 [16]): Active
Activity (HL-60 [17]): Active
